Experimental data reported in patent US20110305637A1, “RADIOLABELLED PDE10 LIGANDS” (Janssen Pharmaceutica N.V., priority 2009, published 2011).
Values joined by “and” are separate entries in the source; they are usually repeats but may differ in a detail not shown here. Identical values can stand only once.

Test: Biodistribution study in male Wistar rats
Type: in vivo, rat
Description: (§1) The biodistribution study of [^18F]B-1 was carried out in male Wistar rats (body weight 250-350 g) at 2 min, 30 min and 60 min post injection (p.i.) (n=3/time point). Rats were injected with about 1.1 MBq of the tracer via tail vein under anesthesia (2.5% Isoflurane in O2 at 1 L/min flow rate) and sacrificed by decapitation at above specified time points. Blood and major organs were collected in tared tubes and weighed. The radioactivity in blood, organs and other body parts was measured using an automated gamma counter The distribution of radioactivity in different parts of the body at different time points p.i. of the tracer was calculated and expressed as percentage of injected dose (% ID), and as percentage of injected dose per gram tissue (% ID/g) for the selected organs. % ID is calculated as cpm in organ/total cpm recovered. For calculation of total radioactivity in blood, blood mass was assumed to be 7% of the body mass.
as §1, with “[^18F]B-2” for “[^18F]B-1”, “270-340” for “250-350”

[1] = 2 min p.i., % ID/g values normalized for the body weight
[2] = 2 min p.i., normalized for body weight
[3] = 30 min p.i., % ID/g values normalized for the body weight

Q: With `[18F]CCCn1cc(-c2ccncc2)c(-c2ccc(OCc3ccc4ccccc4n3)cc2)n1` [[^18F]B-1] as the molecule, how does the “% ID in Carcass” value (2 min p.i.) read?
A: The value was 27.70 ± 0.7 % ID.

Q: And the “% ID in Cerebellum” value (2 min p.i.)?
A: The value was 0.096 ± 0.0 % ID.

Q: What about the “% ID in Cerebrum total” value (2 min p.i.) of the same molecule?
A: The value was 0.4 % ID and 0.407 ± 0.1 % ID.

Q: What about the “% ID in Cortex” value (2 min p.i.) of the same molecule?
A: The value was 0.072 ± 0.01 % ID.

Q: What about the “% ID in Heart” value (2 min p.i.) of the same molecule?
A: Its value is 0.87 ± 0.1 % ID.

Q: What about the “% ID in Hippocampus” value (2 min p.i.) of the same molecule?
A: The value was 0.013 ± 0.00 % ID.

Q: And the “% ID in Intestines” value (2 min p.i.)?
A: Its value is 8.89 ± 0.5 % ID.

Q: What about the “% ID in Kidneys” value (2 min p.i.) of the same molecule?
A: The value was 5.31 ± 0.7 % ID.

Q: What about the “% ID in Liver” value (2 min p.i.) of the same molecule?
A: Its value is 48.20 ± 1.8 % ID.

Q: And the “% ID in Lungs” value (2 min p.i.)?
A: The value was 2.79 ± 0.6 % ID.

Q: And the “% ID in Rest of cerebrum” value (2 min p.i.)?
A: Its value is 0.307 ± 0.05 % ID.

Q: What about the “% ID in Spleen + Pancreas” value (2 min p.i.) of the same molecule?
A: The value was 1.63 ± 0.1 % ID.

Q: And the “% ID in Stomach” value (2 min p.i.)?
A: Its value is 1.74 ± 0.2 % ID.

Q: What about the “% ID in Striatum” value (2 min p.i.) of the same molecule?
A: The value was 0.015 % ID and 0.015 ± 0.00 % ID.

Q: What about the “% ID in Urine” value (2 min p.i.) of the same molecule?
A: Its value is 0.09 ± 0.0 % ID.

Q: And the “% ID/g in Blood” value (2 min p.i.)?
A: Its value is 0.19 ± 0.02 % ID/g.

Q: What about the “% ID/g in Cerebellum” value (2 min p.i.) of the same molecule?
A: Its value is 0.39 ± 0.06 % ID/g.

Q: What about the “% ID/g in Cerebrum + Cerebellum” value (2 min p.i.) of the same molecule?
A: Its value is 0.33 ± 0.05 % ID/g.

Q: And the “% ID/g in Cerebrum total” value (2 min p.i.)?
A: Its value is 0.31 ± 0.05 % ID/g.

Q: And the “% ID/g in Cortex” value (2 min p.i.)?
A: The value was 0.40 ± 0.11 % ID/g.

Q: What about the “% ID/g in Heart” value (2 min p.i.) of the same molecule?
A: The value was 1.06 ± 0.20 % ID/g.

Q: What about the “% ID/g in Liver” value (2 min p.i.) of the same molecule?
A: The value was 3.79 ± 0.19 % ID/g.

Q: What about the “% ID/g in Lungs” value (2 min p.i.) of the same molecule?
A: Its value is 2.36 ± 0.75 % ID/g.

Q: What about the “% ID/g in Rest of cerebrum” value (2 min p.i.) of the same molecule?
A: Its value is 0.30 ± 0.04 % ID/g.

Q: And the “% ID/g in Spleen + Pancreas” value (2 min p.i.)?
A: Its value is 1.18 ± 0.17 % ID/g.

Q: What about the striatum/blood ratio [1] of the same molecule?
A: The striatum/blood ratio was 2.1.

Q: And the striatum/cortex ratio [1]?
A: Its striatum/cortex ratio is 1.0.

Q: And the striatum/hippocampus ratio [1]?
A: The striatum/hippocampus ratio was 2.0.

Q: What about the “total brain uptake of the tracer” value (2 min p.i., % of injected dose) of the same molecule?
A: The value was ~0.5%.

Q: What about the “% ID/g × kg in Blood” value [2] of the same molecule?
A: Its value is 0.05 ± 0.00 % ID/g × kg.

Q: What about the “% ID/g × kg in Cerebellum” value [2] of the same molecule?
A: Its value is 0.100 ± 0.02 % ID/g × kg.

Q: What about the “% ID/g × kg in Cerebrum + Cerebellum” value [2] of the same molecule?
A: The value was 0.08 ± 0.01 % ID/g × kg.

Q: And the “% ID/g × kg in Cerebrum total” value [2]?
A: Its value is 0.080 ± 0.01 % ID/g × kg.

Q: And the “% ID/g × kg in Cortex” value [2]?
A: Its value is 0.103 ± 0.03 % ID/g × kg.

Q: What about the “% ID/g × kg in Heart” value [2] of the same molecule?
A: Its value is 0.27 ± 0.05 % ID/g × kg.

Q: And the “% ID/g × kg in Hippocampus” value [2]?
A: The value was 0.052 ± 0.01 % ID/g × kg.

Q: And the “% ID/g × kg in Kidneys” value [2]?
A: The value was 0.57 ± 0.07 % ID/g × kg.

Q: What about the “% ID/g × kg in Liver” value [2] of the same molecule?
A: Its value is 0.97 ± 0.05 % ID/g × kg.

Q: And the “% ID/g × kg in Lungs” value [2]?
A: The value was 0.60 ± 0.19 % ID/g × kg.

Q: And the “% ID/g × kg in Rest of cerebrum” value [2]?
A: The value was 0.077 ± 0.01 % ID/g × kg.

Q: And the “% ID/g × kg in Spleen + Pancreas” value [2]?
A: Its value is 0.30 ± 0.04 % ID/g × kg.

Q: And the “% ID/g × kg in Striatum” value [2]?
A: Its value is 0.102 ± 0.01 % ID/g × kg.

Q: What about the “% ID in Blood” value (30 min p.i.) of the same molecule?
A: Its value is 2.12 ± 0.1 % ID.

Q: And the “% ID in Carcass” value (30 min p.i.)?
A: Its value is 25.24 ± 1.7 % ID.

Q: What about the “% ID in Cerebellum” value (30 min p.i.) of the same molecule?
A: Its value is 0.021 ± 0.0 % ID.

Q: And the “% ID in Cerebrum total” value (30 min p.i.)?
A: The value was 0.158 ± 0.01 % ID.

Q: And the “% ID in Cortex” value (30 min p.i.)?
A: The value was 0.018 ± 0.00 % ID.

Q: And the “% ID in Heart” value (30 min p.i.)?
A: Its value is 0.22 ± 0.0 % ID.

Q: What about the “% ID in Hippocampus” value (30 min p.i.) of the same molecule?
A: The value was 0.004 ± 0.00 % ID.

Q: What about the “% ID in Intestines” value (30 min p.i.) of the same molecule?
A: Its value is 14.44 ± 3.0 % ID.

Q: What about the “% ID in Kidneys” value (30 min p.i.) of the same molecule?
A: Its value is 1.55 ± 0.1 % ID.

Q: What about the “% ID in Liver” value (30 min p.i.) of the same molecule?
A: The value was 49.64 ± 5.3 % ID.

Q: What about the “% ID in Lungs” value (30 min p.i.) of the same molecule?
A: The value was 1.81 ± 0.0 % ID.

Q: What about the “% ID in Rest of cerebrum” value (30 min p.i.) of the same molecule?
A: The value was 0.122 ± 0.00 % ID.

Q: And the “% ID in Spleen + Pancreas” value (30 min p.i.)?
A: The value was 0.42 ± 0.1 % ID.

Q: What about the “% ID in Stomach” value (30 min p.i.) of the same molecule?
A: Its value is 4.60 ± 0.6 % ID.

Q: And the “% ID in Striatum” value (30 min p.i.)?
A: Its value is 0.014 ± 0.00 % ID.

Q: What about the “% ID in Urine” value (30 min p.i.) of the same molecule?
A: Its value is 0.61 ± 0.3 % ID.

Q: What about the “% ID/g in Blood” value (30 min p.i.) of the same molecule?
A: The value was 0.12 ± 0.01 % ID/g.

Q: And the “% ID/g in Cerebellum” value (30 min p.i.)?
A: The value was 0.09 ± 0.01 % ID/g.

Q: What about the “% ID/g in Cerebrum + Cerebellum” value (30 min p.i.) of the same molecule?
A: The value was 0.12 ± 0.01 % ID/g.

Q: What about the “% ID/g in Cerebrum total” value (30 min p.i.) of the same molecule?
A: Its value is 0.12 ± 0.01 % ID/g.

Q: What about the “% ID/g in Cortex” value (30 min p.i.) of the same molecule?
A: Its value is 0.11 ± 0.02 % ID/g.

Q: And the “% ID/g in Heart” value (30 min p.i.)?
A: The value was 0.26 ± 0.02 % ID/g.

Q: What about the “% ID/g in Hippocampus” value (30 min p.i.) of the same molecule?
A: Its value is 0.08 ± 0.01 % ID/g.

Q: What about the “% ID/g in Kidneys” value (30 min p.i.) of the same molecule?
A: The value was 0.64 ± 0.04 % ID/g.

Q: And the “% ID/g in Liver” value (30 min p.i.)?
A: The value was 4.00 ± 0.37 % ID/g.

Q: And the “% ID/g in Lungs” value (30 min p.i.)?
A: The value was 1.38 ± 0.11 % ID/g.

Q: And the “% ID/g in Rest of cerebrum” value (30 min p.i.)?
A: Its value is 0.12 ± 0.01 % ID/g.

Q: And the “% ID/g in Spleen + Pancreas” value (30 min p.i.)?
A: Its value is 0.27 ± 0.01 % ID/g.

Q: What about the “% ID/g in Striatum” value (30 min p.i.) of the same molecule?
A: The value was 0.41 ± 0.00 % ID/g.

Q: What about the striatum/blood ratio [3] of the same molecule?
A: The striatum/blood ratio was 3.5.

Q: And the striatum/cerebellum ratio [3]?
A: Its striatum/cerebellum ratio is 4.6.

Q: What about the striatum/cortex ratio [3] of the same molecule?
A: The striatum/cortex ratio was 3.9.

Q: And the striatum/hippocampus ratio [3]?
A: Its striatum/hippocampus ratio is 5.1.
